# Measured values reported in publication PMC3609026 (Cancer, 2011).
# Like-named read-outs stand apart in the source and are kept apart here.
# What was measured:
# [1] = Pharmacokinetics: everolimus blood levels, LC/MS, noncompartmental analysis; assay type: in vivo, human; settings: through cycles 1 and 2, combination treatment
# [2] = assay type: in vivo, human; settings: through cycles 1 and 2, combination treatment
# [3] = system: advanced non-clear cell RCC; settings: single agent, 23 patients with advanced non-clear cell RCC; cited from earlier work
structure (smiles),measurement,setting,value
CO[C@H]1C[C@@H]2CC[C@@H](C)[C@@](O)(O2)C(=O)C(=O)N2CCCC[C@H]2C(=O)O[C@H]([C@H](C)C[C@@H]2CC[C@@H](OCCO)[C@H](OC)C2)CC(=O)[C@H](C)/C=C(\C)[C@@H](O)[C@@H](OC)C(=O)[C@H](C)C[C@H](C)/C=C/C=C/C=C/1C [everolimus],accumulation,[1],No unexpected accumulation
CCNCCNC(=O)c1c(C)[nH]c(/C=C2\C(=O)Nc3ccc(F)cc32)c1C [N-desethyl sunitinib],accumulation,[2],No unexpected accumulation
CCN(CC)CCNC(=O)c1c(C)[nH]c(/C=C2\C(=O)Nc3ccc(F)cc32)c1C [sunitinib],median PFS,[3],5.5 months
same,responses,[3],no responses
